Test results: patent US4652637A, “Steroidal glycolipids” (priority 1985, dated 1987)

What was measured:
[1] = tested on: Pseudomonas aeruginosa (Immunotype 1); experiment: In vivo protection against Pseudomonas aeruginosa infection in cyclophosphamide-immunosuppressed CFl female mice (LD50 / protective index); details: CY-treated mice, LD50 (CY + test compound) / LD50 (CY alone); for Protective Index (log): Table 3, Pseudomonas aeruginosa, dose and route not given; for P.I. (log): PA, sub cutaneous
Protocol: (§1) Groups of 15-20 CFl female mice (Charles River Breeding, Cambridge, MA) weighing 22-28 gm were injected intraperitoneally (i.p.) with cyclophosphamide (Cytoxan; CY) at 250 mg per kg body weight. One to two hours later they were typically injected again with the test material by the route specified. Four days later, the mice were divided into groups of five, each of which were injected i.p. with a different dilution of a suspension of Pseudomonas aeruginosa (Immunotype 1). The number of survivors was determined periodically and an estimate was made of the number of CFU of Pseudomonas organisms necessary to cause 50% lethality by the cumulative method of L. J. Reed and H. Muench (Am. J. Hygeine 27 (1938) 493-497). A protective index (P.I.) was defined as the LD50 for the mice receiving cyclophosphamide and the test compound divided by the LD50 for the mice receiving cyclophosphamide alone. All control mice were injected with aqueous vehicle in the same route and schedule as the test animals.
(§2) All compounds for dosing were suspended in a sterile medium referred to as "aqueous vehicle" which contains 0.9% sodium chloride, 0.5% carboxymethyl cellulose, 0.4% Tween 80, and 0.9% benzyl alcohol unless otherwise stated. Test materials were evaluated via subcutaneous (s.c.), i.p., intramuscular (i.m.), orally (p.o.). and intravenous (i.v.) routes of administration. The initial test dose was 40 mg per kg per mouse, with each active compound subsequently titrated below this level.
(§3) All bacteria were inoculated i.p. to induce infection in the in vivo experiments. Candida albicans, however, was administered i.v. Bacteria cultures were harvested in the log phase, washed with phosphate buffered saline (PBS, and resuspended in PBS containing 10% glycerol for freezing at -70° C. in 1 ml aliquots. The number of […] (cfu's) was determined before and after freezing. Frozen cultures were routinely thawed and diluted in sterile PBS just prior to inoculation. Viable cell counts were routinely done on thawed cultures the day of challenge to determine the number of cfu's. Candida albicans was stored in distilled water at room temperature. Viable cell counts were determined the day of testing.
(§4) The testing and results of 6-(5-cholesten-3β-yloxy)hexyl-1-thio-β-D-mannopyranoside (Example 2) against various orgaisms is shown in Table 2.

Staphylococcus aureus = experiment: In vivo protection against Staphylococcus aureus infection in cyclophosphamide-immunosuppressed mice (LD50 / protective index); details: SA, CY-treated mice, sub cutaneous, LD50 (CY + test compound) / LD50 (CY alone)
Protocol: as §1, §2, §3, §4

Candida albicans = experiment: In vivo protection against Candida albicans infection in cyclophosphamide-immunosuppressed mice (LD50 / protective index); details: CA i.v., CY-treated mice, sub cutaneous, LD50 (CY + test compound) / LD50 (CY alone)
Protocol: as §1
as §2, with “The initial test dose was 40 mg per kg per mouse, with each active compound subsequently titrated below this level.” left out
as §3, with “testing. […]” for “testing.”

CC(C)CCC[C@@H](C)[C@H]1CC[C@H]2[C@@H]3CC=C4C[C@@H](OCCCCCCS[C@H]5O[C@H](CO)[C@@H](O)[C@H](O)[C@@H]5O)CC[C@]4(C)[C@H]3CC[C@]12C [Example 1, 6-(5-Cholesten-3β-yloxy)hexyl 1-thio-α-D-mannopyranoside]
Protective Index (log) [1]: 1.5 log

CC(C)CCC[C@@H](C)[C@H]1CC[C@H]2[C@@H]3CC=C4C[C@@H](OCCCCCCS[C@@H]5O[C@H](CO)[C@@H](O)[C@H](O)[C@@H]5O)CC[C@]4(C)[C@H]3CC[C@]12C [Example 2, 6-(5-Cholesten-3β-yloxy)hexyl 1-thio-β-D-mannopyranoside]
P.I. (log) ([1]; 10 mg/kg): 2.75 log | P.I. (log) ([1]; 20 mg/kg): 3.75 log | P.I. (log) ([1]; 40 mg/kg): 4.33 log | P.I. (log) ([1]; 80 mg/kg): 4.66 log | Protective Index (log) [1]: 4.5 log | P.I. (log) (Staphylococcus aureus; 5 mg/kg): 0.99 log | P.I. (log) (Staphylococcus aureus; 10 mg/kg): 1.47 log | P.I. (log) (Staphylococcus aureus; 20 mg/kg): 1.83 log | P.I. (log) (Staphylococcus aureus; 40 mg/kg): 2.66 log | P.I. (log) (Candida albicans; 10 mg/kg): 0.67 log | P.I. (log) (Candida albicans; 20 mg/kg): 0.81 log | P.I. (log) (Candida albicans; 40 mg/kg): 1 log

CC(C)CCC[C@@H](C)[C@H]1CC[C@H]2[C@@H]3CC=C4C[C@@H](OCCCCCCS[C@@H]5O[C@@H](C)[C@@H](O)[C@@H](O)[C@@H]5O)CC[C@]4(C)[C@H]3CC[C@]12C [Example 3, 6-(5-Cholesten-3β-yloxy)hexyl 1-thio-α-L-fucopyranoside]
Protective Index (log) [1]: 2.8 log

CC(C)CCC[C@@H](C)[C@H]1CC[C@H]2[C@@H]3CC=C4C[C@@H](OCCCCCCS[C@H]5O[C@@H](C)[C@@H](O)[C@@H](O)[C@@H]5O)CC[C@]4(C)[C@H]3CC[C@]12C [Example 4, 6-(5-Cholesten-3β-yloxy)hexyl 1-thio-β-L-fucopyranoside]
Protective Index (log) [1]: 1.3 log

CC(C)CCC[C@@H](C)[C@H]1CC[C@H]2[C@@H]3CC=C4C[C@@H](OCCOCCS[C@@H]5O[C@H](CO)[C@@H](O)[C@H](O)[C@@H]5O)CC[C@]4(C)[C@H]3CC[C@]12C [Example 5, 2-(2-(5-Cholesten-3β-yloxy)ethoxy)ethyl 1-thio-β-D-mannopyranoside]
Protective Index (log) [1]: 1.7 log

CC[C@H](C=C[C@@H](C)[C@H]1CC[C@H]2[C@@H]3CC=C4C[C@@H](OCCCCCCS[C@@H]5O[C@H](CO)[C@@H](O)[C@H](O)[C@@H]5O)CC[C@]4(C)[C@H]3CC[C@]12C)C(C)C [Example 6, 6-(Stigmasta-5,22-dien-3β-yloxy)hexyl 1-thio-β-D-mannopyranoside]
Protective Index (log) [1]: 2.0 log

CC(=O)[C@H]1CC[C@H]2[C@@H]3CC=C4C[C@@H](OCCCCCCS[C@@H]5O[C@H](CO)[C@@H](O)[C@H](O)[C@@H]5O)CC[C@]4(C)[C@H]3CC[C@]12C [Example 7, 6-(Pregn-5-en-20-one-3β-yloxy)hexyl 1-thio-βD-mannopyranoside]
Protective Index (log) [1]: 3.5 log

COC(=O)[C@H]1CC[C@H]2[C@@H]3CC=C4C[C@@H](OCCCCCCS[C@@H]5O[C@H](CO)[C@@H](O)[C@H](O)[C@@H]5O)CC[C@]4(C)[C@H]3CC[C@]12C [Example 8, 6-(17β-Carbomethoxy-androst-5-en-3β-yloxy)hexyl 1-thio-β-D-mannopyranoside]
Protective Index (log) [1]: 2.5 log

C[C@]12CC[C@H]3[C@@H](CC=C4C[C@@H](OCCCCCCS[C@@H]5O[C@H](CO)[C@@H](O)[C@H](O)[C@@H]5O)CC[C@@]43C)[C@@H]1CC[C@@H]2C(N)=O [Example 9, 6-(17β-Carbamido-androst-5-en-3β-yloxy)hexyl 1-thio-β-D-mannopyranoside]
Protective Index (log) [1]: 2.5 log

CC(O)[C@H]1CC[C@H]2[C@@H]3CC=C4C[C@@H](OCCCCCCS[C@@H]5O[C@H](CO)[C@@H](O)[C@H](O)[C@@H]5O)CC[C@]4(C)[C@H]3CC[C@]12C (stereo partly drawn) [Example 10, 6-(Pregn-5-en-20-ol-3β-yloxy)hexyl 1-thio-β-D-mannopyranoside]
Protective Index (log) [1]: 1.3 log

CC(=O)N[C@@H](C)[C@H]1CC[C@H]2[C@@H]3CC=C4C[C@@H](OCCCCCCS[C@@H]5O[C@H](CO)[C@@H](O)[C@H](O)[C@@H]5O)CC[C@]4(C)[C@H]3CC[C@]12C [Example 11, 6-(20S-Acetamido-pregn-5-en-3β-yloxy)hexyl 1-thio-β-D-mannopyranoside]
Protective Index (log) [1]: 3.0 log

CC(=O)N[C@H](C)[C@H]1CC[C@H]2[C@@H]3CC=C4C[C@@H](OCCCCCCS[C@@H]5O[C@H](CO)[C@@H](O)[C@H](O)[C@@H]5O)CC[C@]4(C)[C@H]3CC[C@]12C [Example 12, 6-(20R-Acetamido-pregn-5-en-3β-yloxy)hexyl 1-thio-β-D-mannopyranoside]
Protective Index (log) [1]: 2.6 log
